Literature values as cited in patent US20150265683A1, “Stable aqueous composition comprising human insulin or an analogue or derivative thereof” (WOCKHARDT LIMITED, priority 2012, published 2015).

Conditions: for duration of action: after administration

Row | Substance | onset of action (begins to work) after administration [min] | duration of action [h] | onset of action (starts working) after administration [h]
1 | Regular insulin: Short-acting insulin | ≤ 30 | 5 to 8 | 
2 | Lys^B28 Pro^B29 human insulin [insulin lispro] | 5 to 15 | 3 to 4 | 
3 | Insulin detemir |  |  | 1 to 2
4 | Gly(A21)-Arg(B31)-Arg(B32)-human insulin [Insulin glargine] |  |  | 1 to 2
5 | Asp^B28 human insulin [insulin aspart] | 5 to 15 | 3 to 4 | 
6 | Isophane Insulin: Intermediate-acting insulin |  | 16 to 24 | 1 to 3
